pEC50: −log10 of the molar value. The source made the active and inactive calls. No cut-off for these calls is given here.
How the values were obtained:
Cowpox virus [1] = test: Antiviral activity against Cowpox virus Brighton infected BALB/c mouse assessed as mortality at 3 mg/kg, po treated for 5 days after 48 hrs of viral inoculation; type: functional, Cowpox virus (Brighton Red)
Cowpox virus [2] = test: Antiviral activity against Cowpox virus Brighton infected BALB/c mouse assessed as mortality at 10 mg/kg, po treated for 5 days after 48 hrs of viral inoculation; type: functional, Cowpox virus (Brighton Red)
[3] = Selectivity index, ratio of CC50 for HFF cells to EC50 for Vaccinia virus WR; type: toxicity, cell-based; details: human, read-out: Ratio CC50/EC50
Vaccinia virus [4] = test: Antiviral activity against Vaccinia virus Copenhagen in HFF cells assessed as reduction of viral replication after 3 days; type: functional, organism-based; details: Orthopoxvirus vaccinia, 72 h
[5] = Cytotoxicity against HFF cells after 7 days; type: cell-based; details: human
Cowpox virus [6] = test: Antiviral activity against Cowpox virus Brighton infected BALB/c mouse assessed as log reduction of viral titer per gram of liver at 30 mg/kg, po treated for 5 days after 24 hrs of viral inoculation; type: functional, Cowpox virus (Brighton Red)
Cowpox virus [7] = test: Antiviral activity against Cowpox virus Brighton infected BALB/c mouse assessed as log reduction of viral titer per gram of spleen at 30 mg/kg, po treated for 5 days after 24 hrs of viral inoculation; type: functional, Cowpox virus (Brighton Red)
Cowpox virus [8] = test: Antiviral activity against Cowpox virus Brighton infected BALB/c mouse assessed as log reduction of viral titer per gram of kidney at 30 mg/kg, po treated for 5 days after 24 hrs of viral inoculation; type: functional, Cowpox virus (Brighton Red)
Cowpox virus [9] = test: Toxicity in Cowpox virus Brighton infected BALB/c mouse assessed as survival at 30 mg/kg, po treated for 5 days after 24 hrs of viral inoculation; type: functional, organism-based; parameters: dose 30 mg/kg; details: Cowpox virus (Brighton Red)
Cowpox virus [10] = test: Antiviral activity against Cowpox virus Brighton infected BALB/c mouse assessed as reduction of virus titer in lung at 30 mg/kg, po treated for 5 days after 24 hrs of viral inoculation; type: functional, organism-based; parameters: dose 30 mg/kg; details: Cowpox virus (Brighton Red)
Mus musculus = test: Toxicity in BALB/c mouse at 30 mg/kg, po; type: organism-based; parameters: dose 30 mg/kg, route oral; details: in vivo
Vaccinia virus [11] = test: Antiviral activity against Vaccinia virus WR infected BALB/c mouse assessed as log reduction of viral titer per gram of spleen at 30 mg/kg, po treated for 5 days after 24 hrs of viral inoculation; type: functional, Orthopoxvirus vaccinia
Vaccinia virus [12] = test: Antiviral activity against Vaccinia virus WR infected BALB/c mouse assessed as log reduction of viral titer per gram of liver at 30 mg/kg, po treated for 5 days after 24 hrs of viral inoculation; type: functional, Orthopoxvirus vaccinia
Cowpox virus [13] = test: Antiviral activity against Cowpox virus Brighton infected BALB/c mouse assessed as mean death day at 3 mg/kg, po treated for 5 days after 72 hrs of viral inoculation; type: functional, Cowpox virus (Brighton Red)
Cowpox virus [14] = test: Antiviral activity against Cowpox virus Brighton infected BALB/c mouse assessed as mean death day at 10 mg/kg, po treated for 5 days after 72 hrs of viral inoculation; type: functional, Cowpox virus (Brighton Red)
Cowpox virus [15] = test: Antiviral activity against Cowpox virus Brighton infected BALB/c mouse assessed as mean death day at 30 mg/kg, po treated for 5 days after 72 hrs of viral inoculation; type: functional, Cowpox virus (Brighton Red)
Cowpox virus [16] = test: Antiviral activity against Cowpox virus Brighton infected BALB/c mouse assessed as mean death day at 10 mg/kg, po treated for 5 days after 48 hrs of viral inoculation; type: functional, Cowpox virus (Brighton Red)
Cowpox virus [17] = test: Antiviral activity against Cowpox virus Brighton infected BALB/c mouse assessed as mean death day at 30 mg/kg, po treated for 5 days after 48 hrs of viral inoculation; type: functional, Cowpox virus (Brighton Red)
Cowpox virus [18] = test: Antiviral activity against Cowpox virus Brighton infected BALB/c mouse assessed as mean death day at 3 mg/kg, po treated for 5 days after 24 hrs of viral inoculation; type: functional, Cowpox virus (Brighton Red)
Cowpox virus [19] = test: Antiviral activity against Cowpox virus Brighton infected BALB/c mouse assessed as mean death day at 10 mg/kg, po treated for 5 days after 24 hrs of viral inoculation; type: functional, Cowpox virus (Brighton Red)
Cowpox virus [20] = test: Antiviral activity against Cowpox virus Brighton infected BALB/c mouse assessed as mean death day at 30 mg/kg, po treated for 5 days after 24 hrs of viral inoculation; type: functional, Cowpox virus (Brighton Red)
Cowpox virus [21] = test: Antiviral activity against Cowpox virus Brighton infected BALB/c mouse assessed as mortality at 3 mg/kg, po treated for 5 days after 72 hrs of viral inoculation; type: functional, Cowpox virus (Brighton Red)
Cowpox virus [22] = test: Antiviral activity against Cowpox virus Brighton infected BALB/c mouse assessed as mortality at 10 mg/kg, po treated for 5 days after 72 hrs of viral inoculation; type: functional, Cowpox virus (Brighton Red)
Cowpox virus [23] = test: Antiviral activity against Cowpox virus Brighton infected BALB/c mouse assessed as mortality at 30 mg/kg, po treated for 5 days after 72 hrs of viral inoculation; type: functional, Cowpox virus (Brighton Red)
Cowpox virus [24] = test: Antiviral activity against Cowpox virus Brighton infected BALB/c mouse assessed as mortality at 30 mg/kg, po treated for 5 days after 48 hrs of viral inoculation; type: functional, Cowpox virus (Brighton Red)
Cowpox virus [25] = test: Antiviral activity against Cowpox virus Brighton infected BALB/c mouse assessed as mortality at 3 mg/kg, po treated for 5 days after 24 hrs of viral inoculation; type: functional, Cowpox virus (Brighton Red)
Cowpox virus [26] = test: Antiviral activity against Cowpox virus Brighton infected BALB/c mouse assessed as mortality at 30 mg/kg, po treated for 5 days after 24 hrs of viral inoculation; type: functional, Cowpox virus (Brighton Red)
Vaccinia virus [27] = test: Antiviral activity against Vaccinia virus WR infected BALB/c mouse assessed as mean death day at 3 mg/kg, po treated for 5 days after 72 hrs of viral inoculation; type: functional, Orthopoxvirus vaccinia
Vaccinia virus [28] = test: Antiviral activity against Vaccinia virus WR infected BALB/c mouse assessed as mean death day at 30 mg/kg, po treated for 5 days after 72 hrs of viral inoculation; type: functional, Orthopoxvirus vaccinia
Vaccinia virus [29] = test: Antiviral activity against Vaccinia virus WR infected BALB/c mouse assessed as mean death day at 3 mg/kg, po treated for 5 days after 48 hrs of viral inoculation; type: functional, Orthopoxvirus vaccinia
Vaccinia virus [30] = test: Antiviral activity against Vaccinia virus WR infected BALB/c mouse assessed as mean death day at 10 mg/kg, po treated for 5 days after 48 hrs of viral inoculation; type: functional, Orthopoxvirus vaccinia
Vaccinia virus [31] = test: Antiviral activity against Vaccinia virus WR infected BALB/c mouse assessed as mean death day at 30 mg/kg, po treated for 5 days after 24 hrs of viral inoculation; type: functional, Orthopoxvirus vaccinia
Vaccinia virus [32] = test: Antiviral activity against Vaccinia virus WR infected BALB/c mouse assessed as mortality at 3 mg/kg, po treated for 5 days after 72 hrs of viral inoculation; type: functional, Orthopoxvirus vaccinia
Vaccinia virus [33] = test: Antiviral activity against Vaccinia virus WR infected BALB/c mouse assessed as mortality at 10 mg/kg, po treated for 5 days after 72 hrs of viral inoculation; type: functional, Orthopoxvirus vaccinia
Vaccinia virus [34] = test: Antiviral activity against Vaccinia virus WR infected BALB/c mouse assessed as mortality at 30 mg/kg, po treated for 5 days after 72 hrs of viral inoculation; type: functional, Orthopoxvirus vaccinia
Vaccinia virus [35] = test: Antiviral activity against Vaccinia virus WR infected BALB/c mouse assessed as mortality at 3 mg/kg, po treated for 5 days after 48 hrs of viral inoculation; type: functional, Orthopoxvirus vaccinia
Vaccinia virus [36] = test: Antiviral activity against Vaccinia virus WR infected BALB/c mouse assessed as mortality at 30 mg/kg, po treated for 5 days after 48 hrs of viral inoculation; type: functional, Orthopoxvirus vaccinia
Vaccinia virus [37] = test: Antiviral activity against Vaccinia virus WR infected BALB/c mouse assessed as mortality at 3 mg/kg, po treated for 5 days after 24 hrs of viral inoculation; type: functional, Orthopoxvirus vaccinia
Vaccinia virus [38] = test: Antiviral activity against Vaccinia virus WR infected BALB/c mouse assessed as mortality at 10 mg/kg, po treated for 5 days after 24 hrs of viral inoculation; type: functional, Orthopoxvirus vaccinia
Vaccinia virus [39] = test: Antiviral activity against Vaccinia virus WR infected BALB/c mouse assessed as mortality at 30 mg/kg, po treated for 5 days after 24 hrs of viral inoculation; type: functional, Orthopoxvirus vaccinia

## CCCCCCCCCCCCCCCCCCOCCOP(=O)(O)CO[C@H](CO)Cn1cnc2c(N)ncnc21
Cowpox virus [1]
  Activity: 80%
Cowpox virus [2]
  Activity: 20%
[3]
  selectivity ratio: 15
Vaccinia virus [4]
  pEC50: 8.00
[5]
  CC50 at 168 h: 1500 nM
Cowpox virus [6]
  log10PFU: 2.5 g
Cowpox virus [7]
  log10PFU: 2.5 g
Cowpox virus [8]
  log10PFU: 2.5 g
Cowpox virus [9]
  Activity: Not toxic
Cowpox virus [10]
  Activity: inactive
Mus musculus
  Activity: Non-toxic
Vaccinia virus [11]
  log10PFU: 4 g
Vaccinia virus [12]
  log10PFU: 4 g
Cowpox virus [13]
  Activity: 11.1 days
Cowpox virus [14]
  Activity: 12.2 days
Cowpox virus [15]
  Activity: 10.6 days
Cowpox virus [16]
  Activity: 11 days
Cowpox virus [17]
  Activity: 9.5 days
Cowpox virus [18]
  Activity: 13.7 days
Cowpox virus [19]
  Activity: 14 days
Cowpox virus [20]
  Activity: 13 days
Cowpox virus [21]
  Activity: 93%
Cowpox virus [22]
  Activity: 67%
Cowpox virus [23]
  Activity: 33%
Cowpox virus [24]
  Activity: 13%
Cowpox virus [25]
  Activity: 60%
Cowpox virus [26]
  Activity: 7%
Vaccinia virus [27]
  Activity: 9 days
Vaccinia virus [28]
  Activity: 10.5 days
Vaccinia virus [29]
  Activity: 7.9 days
Vaccinia virus [30]
  Activity: 10.3 days
Vaccinia virus [31]
  Activity: 8.3 days
Vaccinia virus [32]
  Activity: 40%
Vaccinia virus [33]
  Activity: 33%
Vaccinia virus [34]
  Activity: 73%
Vaccinia virus [35]
  Activity: 53%
Vaccinia virus [36]
  Activity: 40%
Vaccinia virus [37]
  Activity: 67%
Vaccinia virus [38]
  Activity: 0%
Vaccinia virus [39]
  Activity: 27%

From ChEMBL document CHEMBL1137662, “Effect of oral treatment with hexadecyloxypropyl-[(S)-9-(3-hydroxy-2- phosphonylmethoxypropyl)adenine] [(S)-HPMPA] or octadecyloxyethyl-(S)-HPMPA on cowpox or vaccinia virus infections in mice” (Antimicrob Agents Chemother, 2007)
